Source: ChEMBL document CHEMBL1125139, “Antitumor agents. 113. New 4 beta-arylamino derivatives of 4'-O-demethylepipodophyllotoxin and related compounds as potent inhibitors of human DNA topoisomerase II” (1990)

How the values were obtained:
[1] = test system: Nucleic Acid; test: Inhibition of cellular protein-DNA complex formation at 10 uM; type: functional; details: Homo sapiens
[2] = molecular target: DNA topoisomerase II (Homo sapiens) (UniProt P11388+Q02880); test: Inhibitory activity against human DNA topoisomerase II; type: protein assay
[3] = Concentration for 50% reduction in cell number after 3-day incubation; type: functional; details: Homo sapiens, 72 h; read-out: ID50 (the source's name)

## CCOC(=O)c1ccc(N[C@@H]2c3cc4c(cc3[C@@H](c3cc(OC)c(O)c(OC)c3)[C@H]3C(=O)OC[C@@H]32)OCO4)cc1
[1]
  Formation: 207%
[2]
  ID50: 5 µM
[3]
  IC50: 840 nM

## CCOC(=O)c1ccccc1N[C@@H]1c2cc3c(cc2[C@@H](c2cc(OC)c(O)c(OC)c2)[C@H]2C(=O)OC[C@@H]21)OCO3
[1]
  Formation: 4%
[2]
  ID50: > 100 µM
[3]
  IC50: 1000 nM

## COc1cc([C@@H]2c3cc4c(cc3[C@@H](Oc3ccc(O)cc3)[C@H]3COC(=O)[C@H]23)OCO4)cc(OC)c1O
[1]
  Formation: 34%
[2]
  ID50: 50 µM
[3]
  IC50: < 1000 nM

## COc1cc([C@@H]2c3cc4c(cc3[C@@H](O[C@@H]3O[C@@H]5CO[C@@H](C)O[C@H]5[C@H](O)[C@H]3O)[C@H]3COC(=O)[C@H]23)OCO4)cc(OC)c1O [ETOPOSIDE]
[1]
  Formation: 100%
[3]
  IC50: 200 nM

## COc1cc([C@@H]2c3cc4c(cc3[C@@H](Nc3ccc(C#N)cc3)[C@H]3COC(=O)[C@H]23)OCO4)cc(OC)c1O
[1]
  Formation: 211%
[2]
  ID50: 10 µM
[3]
  IC50: 640 nM

## COc1cc([C@@H]2c3cc4c(cc3[C@@H](Nc3ccccc3)[C@H]3COC(=O)[C@H]23)OCO4)cc(OC)c1O
[1]
  Formation: 243%
[2]
  ID50: 25 µM
[3]
  IC50: 710 nM

## COc1cc([C@@H]2c3cc4c(cc3[C@@H](Nc3cccc(N)c3)[C@H]3COC(=O)[C@H]23)OCO4)cc(OC)c1O
[1]
  Formation: 140%
[2]
  ID50: 25 µM
[3]
  IC50: 4000 nM

## COC(=O)c1cc(N[C@@H]2c3cc4c(cc3[C@@H](c3cc(OC)c(O)c(OC)c3)[C@H]3C(=O)OC[C@@H]32)OCO4)ccc1O
[1]
  Formation: 83%
[2]
  ID50: 50 µM
[3]
  IC50: 1000 nM

## COc1cc([C@@H]2c3cc4c(cc3[C@@H](NCCO)[C@H]3COC(=O)[C@H]23)OCO4)cc(OC)c1O
[1]
  Formation: 121%
[3]
  IC50: 1600 nM

## COc1cc([C@@H]2c3cc4c(cc3[C@@H](Nc3ccc(N5CCOCC5)cc3)[C@H]3COC(=O)[C@H]23)OCO4)cc(OC)c1O
[1]
  Formation: 140%
[2]
  ID50: 10 µM
[3]
  IC50: 660 nM

## COc1cc([C@@H]2c3cc4c(cc3[C@@H](Nc3cccc(CO)c3)[C@H]3COC(=O)[C@H]23)OCO4)cc(OC)c1O
[1]
  Formation: 235%
[2]
  ID50: 25 µM
[3]
  IC50: < 1000 nM

## COc1cc([C@@H]2c3cc4c(cc3[C@@H](Nc3cc(C(F)(F)F)cc(C(F)(F)F)c3)[C@H]3COC(=O)[C@H]23)OCO4)cc(OC)c1O
[1]
  Formation: 21%
[2]
  ID50: > 100 µM
[3]
  IC50: 3400 nM

## COc1cc([C@@H]2c3cc4c(cc3[C@@H](Nc3cnc5ccccc5c3)[C@H]3COC(=O)[C@H]23)OCO4)cc(OC)c1O
[1]
  Formation: 123%
[2]
  ID50: 50 µM
[3]
  IC50: < 1000 nM

## COc1cccc(N[C@@H]2c3cc4c(cc3[C@@H](c3cc(OC)c(O)c(OC)c3)[C@H]3C(=O)OC[C@@H]32)OCO4)c1
[1]
  Formation: 104%
[2]
  ID50: 25 µM
[3]
  IC50: 3800 nM

## COc1cc([C@@H]2c3cc4c(cc3[C@@H](Oc3ccc(F)cc3)[C@H]3COC(=O)[C@H]23)OCO4)cc(OC)c1O
[1]
  Formation: 57%
[2]
  ID50: > 100 µM
[3]
  IC50: 500 nM

## COC(=O)c1cc(N[C@@H]2c3cc4c(cc3[C@@H](c3cc(OC)c(O)c(OC)c3)[C@H]3C(=O)OC[C@@H]32)OCO4)cc(C(=O)OC)c1
[1]
  Formation: 50%
[2]
  ID50: 25 µM
[3]
  IC50: < 1000 nM

## COc1cc([C@@H]2c3cc4c(cc3[C@@H](Nc3cc(N)ccc3O)[C@H]3COC(=O)[C@H]23)OCO4)cc(OC)c1O
[1]
  Formation: 11%
[2]
  ID50: > 100 µM
[3]
  IC50: 3300 nM

## COc1cc([C@@H]2c3cc4c(cc3[C@@H](Nc3ccc5c(c3)OCO5)[C@H]3COC(=O)[C@H]23)OCO4)cc(OC)c1O
[1]
  Formation: 164%
[2]
  ID50: 50 µM
[3]
  IC50: < 1000 nM

## COc1cc([C@@H]2c3cc4c(cc3[C@@H](Sc3ccc(O)cc3)[C@H]3COC(=O)[C@H]23)OCO4)cc(OC)c1O
[1]
  Formation: 10%
[2]
  ID50: > 100 µM
[3]
  IC50: < 1000 nM

## COc1cc([C@@H]2c3cc4c(cc3[C@@H](Nc3cc([N+](=O)[O-])ccc3O)[C@H]3COC(=O)[C@H]23)OCO4)cc(OC)c1O
[1]
  Formation: 15%
[2]
  ID50: > 100 µM
[3]
  IC50: 1000 nM

## COC(=O)c1ccc(N[C@@H]2c3cc4c(cc3[C@@H](c3cc(OC)c(O)c(OC)c3)[C@H]3C(=O)OC[C@@H]32)OCO4)cc1O
[1]
  Formation: 129%
[2]
  ID50: 50 µM
[3]
  IC50: 5800 nM

## COc1ccc(N[C@@H]2c3cc4c(cc3[C@@H](c3cc(OC)c(O)c(OC)c3)[C@H]3C(=O)OC[C@@H]32)OCO4)cc1OC
[1]
  Formation: 180%
[2]
  ID50: 25 µM
[3]
  IC50: < 1000 nM

## COc1cc([C@@H]2c3cc4c(cc3[C@@H](Nc3ccccn3)[C@H]3COC(=O)[C@H]23)OCO4)cc(OC)c1O
[1]
  Formation: 97%
[2]
  ID50: 50 µM
[3]
  IC50: 710 nM

## COc1cc([C@@H]2c3cc4c(cc3[C@@H](Nc3cccc(C(C)=O)c3)[C@H]3COC(=O)[C@H]23)OCO4)cc(OC)c1O
[1]
  Formation: 150%
[2]
  ID50: 50 µM
[3]
  IC50: 1700 nM

## COC(=O)c1cccc(N[C@@H]2c3cc4c(cc3[C@@H](c3cc(OC)c(O)c(OC)c3)[C@H]3C(=O)OC[C@@H]32)OCO4)c1
[1]
  Formation: 249%
[2]
  ID50: 50 µM
[3]
  IC50: 2700 nM

## COc1cc([C@@H]2c3cc4c(cc3[C@@H](Nc3cc(OC)c(OC)c(OC)c3)[C@H]3COC(=O)[C@H]23)OCO4)cc(OC)c1O
[1]
  Formation: 47%
[2]
  ID50: > 100 µM
[3]
  IC50: 630 nM

## COc1cc([C@@H]2c3cc4c(cc3[C@@H](Nc3ccc(N)cc3)[C@H]3COC(=O)[C@H]23)OCO4)cc(OC)c1O
[1]
  Formation: 330%
[2]
  ID50: 5 µM
[3]
  IC50: 800 nM

## COc1cc([C@@H]2c3cc4c(cc3[C@@H](Nc3ccc(F)cc3)[C@H]3COC(=O)[C@H]23)OCO4)cc(OC)c1O
[1]
  Formation: 213%
[2]
  ID50: 5 µM
[3]
  IC50: 240 nM

## COc1cc([C@@H]2c3cc4c(cc3[C@@H](Nc3ccc(Oc5ccccc5)cc3)[C@H]3COC(=O)[C@H]23)OCO4)cc(OC)c1O
[1]
  Formation: 97%
[2]
  ID50: 25 µM
[3]
  IC50: 1000 nM

## COc1cc([C@@H]2c3cc4c(cc3[C@@H](Nc3cccc([N+](=O)[O-])c3)[C@H]3COC(=O)[C@H]23)OCO4)cc(OC)c1O
[1]
  Formation: 230%
[2]
  ID50: 50 µM
[3]
  IC50: 1000 nM

## COc1cc([C@@H]2c3cc4c(cc3[C@@H](Nc3cccc(O)c3)[C@H]3COC(=O)[C@H]23)OCO4)cc(OC)c1O
[1]
  Formation: 290%
[2]
  ID50: 25 µM
[3]
  IC50: 450 nM

## COc1cc([C@@H]2c3cc4c(cc3[C@@H](Nc3cccc(C#N)c3)[C@H]3COC(=O)[C@H]23)OCO4)cc(OC)c1O
[1]
  Formation: 137%
[2]
  ID50: 25 µM
[3]
  IC50: 690 nM

## COc1cc([C@@H]2c3cc4c(cc3[C@@H](Nc3ccc5c(c3)OCCO5)[C@H]3COC(=O)[C@H]23)OCO4)cc(OC)c1O
[1]
  Formation: 279%
[2]
  ID50: 10 µM
[3]
  IC50: 680 nM

## COc1cc([C@@H]2c3cc4c(cc3[C@@H](Nc3ccc([N+](=O)[O-])cc3)[C@H]3COC(=O)[C@H]23)OCO4)cc(OC)c1O
[1]
  Formation: 323%
[2]
  ID50: 10 µM
[3]
  IC50: 490 nM

## COc1cc([C@@H]2c3cc4c(cc3[C@@H](Nc3cccnc3)[C@H]3COC(=O)[C@H]23)OCO4)cc(OC)c1O
[1]
  Formation: 148%
[2]
  ID50: 50 µM
[3]
  IC50: 240 nM
